Measured values: patent publication US4866046A, “Low-dosage sublingual aspirin” (Top Laboratories, Inc., priority 1988, dated 1989)

Tests used:
Cyclooxygenase = Cyclooxygenase inhibition in volunteers after daily aspirin tablets; assay type: in vivo, human
Platelet Aggregation [1] = experiment: Platelet aggregation inhibition in volunteers, thrombin as aggregating agent; assay type: in vivo, human; conditions: daily dose, average (range)
Experimental: Platelet aggregation was measured against thrombin as aggregating agent. Tablets were all similarly made as described in Example 1.

Platelet Aggregation [2] = conditions: dose of 325 mg/day, in some people; cited from earlier work

Which “% Inhibition, after 5-7 days, of Cyclooxygenase” value (“% Inhibition … of Cyclooxygenase” below) (Cyclooxygenase; 10 mg. tablet, swallowed, average (range) of volunteers) does the source give for `CC(=O)Oc1ccccc1C(=O)O` [Aspirin, acetylsalicylic acid] here?
Its value is 55.6 (11-95) %.

And the “% Inhibition … of Cyclooxygenase” value (Cyclooxygenase; 20 mg. sublingual tablet, average (range))?
Its value is 83.3 (75-94) %.

What about the “% Inhibition … of Cyclooxygenase” value (Cyclooxygenase; 80 mg. sublingual tablet (tablet of Example 1), average (range)) of the same compound?
Its value is 99.0 (95-100) %.

And the “% Inhibition … of Cyclooxygenase” value (Cyclooxygenase; 80 mg. tablet, swallowed, average (range))?
The value was 76.3 (13-100) %.

And the “% Inhibition … of Cyclooxygenase” value (Cyclooxygenase; 325 mg tablet, swallowed, average (range))?
Its value is 97.7 (25-100) %.

What about the “% Inhibition … of Cyclooxygenase” value (Cyclooxygenase; 325 mg. sublingual tablet, average) of the same compound?
The value was 100.0%.

What about the “% Inhibition, after 5-7 days, of Platelet Aggregation” value (Platelet Aggregation [1]; 10 mg. tablet, swallowed) of the same compound?
Its value is 27.5 (0-87) %.

What about the “% Inhibition, after 5-7 days, of Platelet Aggregation” value (Platelet Aggregation [1]; 20 mg. sublingual tablet) of the same compound?
Its value is 45.3 (35-60) %.

What about the “% Inhibition, after 5-7 days, of Platelet Aggregation” value (Platelet Aggregation [1]; 80 mg. sublingual tablet (tablet of Example 1)) of the same compound?
The value was 95.7 (88-100) %.

And the “% Inhibition, after 5-7 days, of Platelet Aggregation” value (Platelet Aggregation [1]; 80 mg. tablet, swallowed)?
The value was 44.2 (5-98) %.

And the “% Inhibition, after 5-7 days, of Platelet Aggregation” value (Platelet Aggregation [1]; 325 mg. sublingual tablet)?
Its value is 78.5 (62-98) %.

What about the inhibition at 325 mg (Platelet Aggregation [1]; Homo sapiens, Platelet, 325 mg tablet, swallowed, read-out: % Inhibition, after 5-7 days, of Platelet Aggregation) of the same compound?
The inhibition at 325 mg was 70%.

What about the inhibit platelet aggregation (Platelet Aggregation [2]) of the same compound?
The inhibit platelet aggregation was 90%.
